Measured values taken from the NIST ThermoML archive (doi:10.1016/j.tca.2019.178319).
Numbers after ± are expanded uncertainties.

Settings: Crystal; for mass density: 298 K, 101.33 kPa, X-ray diffraction; for Normal melting temperature: DTA

Compound | mass density [kg/m3] | Normal melting temperature [°C]
[I][Bi]([I])[I] [bismuth triiodide] | 5770 ± 20 | 407 ± 4
[Bi+3].[Bi+3].[Se-2].[Se-2].[Se-2] [bismuth(III) selenide] | 7660 ± 30 | 707 ± 6
[Bi+3].[Bi+3].[S-2].[S-2].[S-2] [bismuth(III) sulfide] | 6800 ± 20 | 777 ± 6
